The values that follow come from PubChem BioAssay AID624404 (Broad Institute, 2012).

Structures are written as SMILES. Inconclusive results are not listed.

For the experiment, the system named is D54 LucT luciferase reporter counterscreen, luminescence, 24 h. The experiment is described as follows: luciferase activators in glycosylation-insensitive reporter cells, dose response, counter-screen for N-linked glycosylation inhibitor project, D54 LucT cells, luminescence, cherry pick (AID 624404).
On to `COc1ccc(/C=C/C(=O)c2c(O)cc(OC)cc2OC)cc1`, for which the AC35 was 3210 nM.

With `CSc1nnc(-c2sccc2OCc2ccccc2)n1C`, the AC35 is 929 nM.

For the molecule `COc1ccccc1-n1cnc2cc(NCc3cccs3)ccc21`, the AC35 is 266 nM.

For the molecule `Cn1c(=O)[nH]c(=O)c2c1nc(N(CCO)Cc1ccccc1)n2CCCc1ccccc1`, the AC35 is 547 nM.

`COc1ccccc1-c1cc(NC=O)c2ncc(-c3cccc(C(=O)N(C)C)c3)n2c1`: the AC35 is 48.3 nM.

For the molecule `COc1cccc(C2=NOC(C(=O)NCc3ccc(F)cc3)C2)c1` (stereo not drawn), the AC35 is 4170 nM.

For the molecule `O=C(/C=C/Sc1ccccc1)c1ccc(Cl)cc1`, the AC35 is 370 nM.

Regarding `COc1cccc(N2CCN(C(=O)c3[nH]c(C)c(C(C)=O)c3C)CC2)c1`, the AC35 is 4890 nM.

For `O=C(/C=C/c1ccco1)Nc1nnc(-c2ccco2)s1`, the AC35 was 204 nM.

As to `CC1(C)Cc2c(c(N3CCOCC3)nc3snc(N)c23)CO1`, the AC35 was 1200 nM.

For the molecule `CC(C)(C)S(=O)(=O)N1C[C@@H]2CC/C=C\C/C(c3ccccc3)=C\2[C@H]1CCO`, the AC35 was 645 nM.

On to `Cc1ccc(Sc2c(CO)c(-c3ccccc3)nn2C)cc1`, for which the AC35 was 166 nM.

As to `Cc1ccc2nc(-c3ccc(SCC(=O)Nc4nnc(C)s4)nc3)[nH]c2c1`, the AC35 is 22.4 nM.

With `CC(C)(C)c1ccc(C(=O)NNC(=O)c2cccc(Br)c2)cc1`, the AC35 was 5040 nM.

`O=C(Nc1ccccc1O)c1ccc(NC(=O)C2CC2)cc1`: the AC35 is 432 nM.

For the molecule `COC(=O)c1c(NC(=O)c2cccnc2Cl)sc(C(=O)N(C)C)c1C`, the AC35 was 1380 nM.

Take `CCOc1ccc2c(c1)OC(c1ccc(OC)cc1)(C(F)(F)F)NC2=O` (stereo not drawn): the AC35 was 748 nM.

Regarding `COc1ccc2c(c1)[C@H]1[C@H](CO2)[C@H](c2ccccc2)[C@]2(C)C(=O)Nc3ccccc3C(=O)N12`, the AC35 is 353 nM.

Turning to `CSCCOC(=O)c1[nH]c2c(c1C)C(=O)CC(c1ccco1)C2` (stereo not drawn), the AC35 was 627 nM.

With `COc1cc2c(cc1OC)C(c1ccccc1)N(C(=O)c1ccco1)CC2` (stereo not drawn), the AC35 is 375 nM.

Regarding `COc1ccc2c(c1)OC[C@H]1[C@H]2N2C(=O)c3ccc(F)cc3NC(=O)[C@@]2(C)[C@H]1c1ccccc1`, the AC35 is 1070 nM.

Take `COC(=O)/C=C1\C(=O)N(c2nc3ccccc3s2)C(=S)N1c1ccc(F)cc1`: the AC35 was 14.9 nM.

With `COc1cc2cnc(-c3ccccc3)cc2cc1OC`, the AC35 is 2540 nM.

With `COc1ccc(C(=O)c2sc(Nc3ccccc3)nc2N)cc1`, the AC35 was 645 nM.

As to `CCOc1ccc(Nc2nc(N(C)c3ccccc3)nc(N)c2[N+](=O)[O-])cc1`, the AC35 is 128 nM.

`CN(Cc1ccccc1)c1nc2c(c(=O)[nH]c(=O)n2C)n1CCCc1ccccc1`: the AC35 was 909 nM.

For the molecule `COc1cccc(/C=C2\SC(=S)N(CCC(=O)N3CCCCC3)C2=O)c1`, the AC35 was 4370 nM.

For `O=C(Nc1ncccc1O)c1ccc(C(=O)c2ccccc2)cc1`, the AC35 was 773 nM.

For `Cc1nnc2ccc(-c3ccc(NC(=O)c4ccco4)cc3)nn12`, the AC35 is 644 nM.

For `O=C(Nc1ccncc1)C1CCCN(S(=O)(=O)c2cccc3cccnc23)C1` (stereo not drawn), the AC35 is 4670 nM.

With `O=C(NCc1ccccc1Br)c1cccc2c1C(=O)c1ccc(-c3ccc(OC(F)(F)F)cc3)cc1S2(=O)=O`, the AC35 is 408 nM.

`COC(=O)[C@@H]1C[C@H]1[C@@H](NP(=O)(c1ccccc1)c1ccccc1)c1ccccc1`: the AC35 was 3100 nM.

`c1ccc(-c2cc(-c3nnc4n3N=C(c3ccc5ccccc5c3)CS4)[nH]n2)cc1`: the AC35 is 205 nM.
